Series [1] in a line: Cytotoxicity against human HuH7 cells after 2 hrs by WST-1 assay relative to control. The format is cell-based, Huh-7.
In a further series the test system is Hepatitis C virus. The series is described as follows: Antiviral activity against HCV genotype 1b infected in human HuH7 cells assessed as inhibition of viral RNA replication after 3 days by luciferase reporter gene assay. Conditions: Huh-7, 72 h. Type of series: functional, organism-based, Hepacivirus hominis. For orientation: In a reporter assay the amount or activity of a reporter protein is the signal.

By CC50 is commonly meant the concentration at which the toxic effect on the cells reaches its halfway point. Read a low CC50 as greater toxicity to the cells. What is called IC50 is the concentration at which inhibition is half-maximal.

As to `CCC(=O)O[C@H]1[C@@](C)(F)[C@H](n2ccc(=O)[nH]c2=O)O[C@]1(F)COP(=O)(N[C@@H](C)C(=O)OC(C)C)Oc1cccc2ccccc12` (stereo partly specified), in series [1], half-maximal cytotoxicity (CC50 at 2 h) was put at 67.8 µM. For the same molecule, in the series with Hepatitis C virus, the IC50 was determined as 0.151 µM.

For the molecule `CC(C)OC(=O)[C@H](C)NP(=O)(OC[C@@]1(F)O[C@@H](n2ccc(=O)[nH]c2=O)[C@](C)(F)[C@@H]1O)Oc1ccc2ccccc2c1` (stereo partly specified), in series [1], the CC50 at 2 h was greater than 100 µM.

Consider `CC(C)OC(=O)[C@H](C)NP(=O)(OC[C@@]1(F)O[C@@H](n2ccc(=O)[nH]c2=O)[C@](C)(F)[C@@H]1O)Oc1cccc2ccccc12` (stereo partly specified), for which the CC50 at 2 h in series [1] is greater than 100 µM. For the same molecule, in the series with Hepatitis C virus, the concentration for half-maximal inhibition (IC50) was 0.115 µM.

`CC(C)OC(=O)[C@H](C)NP(=O)(OC[C@@]1(F)O[C@@H](n2ccc(=O)[nH]c2=O)[C@](C)(F)[C@@H]1O)Oc1ccccc1` (stereo partly specified): the CC50 at 2 h in series [1] is greater than 100 µM.
